From EP4741392A1, “1H-PYRAZOLO[4,3-C]PYRIDINE COMPOUND, AND COMPOSITION THEREOF AND USE THEREOF” (Shenzhen TargetRx Co., Ltd., priority 2023, dated 2025)
Where two headings read alike, the source gives them in different places.

What was measured:
TMD8 cells = test: Viability assay of TMD8 cells (CTG); type: cell-based; details: cell viability, 120 hours
Protocol: (§1) The in vitro antiproliferative activity of the compounds of the present disclosure against TMD8 cells and OCI-LY10 cells was assayed using CTG (Cell Titer-Glo) luminescent cell viability assay. The specific assay methods were as follows. • a) TMD8 cells were cultured at 37 °C and 5% CO2 in complete medium [RPMI 1640 (supplier Gibco, product number 22400-089) + 10% FBS (supplier Gibco, product number 10091-148) + 1% P/S (supplier Hyclone, product number SV30010)]; OCI-LY10 cells were cultured at 37 °C and 5% CO2 in medium [IMDM (supplier Gibco, product number 31980-030) + 20% FBS (supplier Gibco, product number 10091-148) + 1% P/S (supplier Hyclone, product number SV30010) + 0.05 mM 2-Mercaptoethanol (supplier Sigma, product number M6250)]. • b) Cells in the logarithmic growth phase were harvested, and the total cell count and viable cell count were determined using a Vi-cell cell counter (supplier: BECKMAN COULTER, product number 2785198). • c) Cell density was adjusted using complete culture medium. Then, the cells were inoculated at 1500 cells per well in a 384-well cell culture plate (supplier Greiner, product number 781090). • d) The cells in the 384-well plate were cultured at 37 °C and 5% CO2 overnight. • e) A 10-fold drug solution was prepared, and then the serially diluted compound was transferred to the corresponding assay wells of the 384-well cell plate so that the final assay concentration was 1000 nM, with 9 concentrations, 3-fold dilutions, and triplicates for each drug concentration. • f) The cells in the 384-well plate with the drug added were cultured at 37 °C and 5% CO2 for another 120 hours. • g) The cells were removed from the incubator, and allowed to equilibrate at room temperature for 30 minutes. The cell state and compound solubility were observed under a microscope. • h) An equal volume of CellTiterGlo solution (supplier Promega, product number G7573) was added to each well, and the plate was incubated at room temperature for 30 minutes. • i) Then, the luminescent signal value was detected on an EnVision instrument (supplier PerkinElmer, product number 2441715).
(§2) The data were analyzed using XL-fit software (supplier: ID Business Solutions Ltd., software version: XL fit 5.5.0.5). Nonlinear regression was performed using X=Log(X), and the X values were transformed using a four-parameter Logistic model 205, from which the IC50 values were calculated. Inhibition rate % = (Max−samplevalue)/Max*100.(Max:DMSOnegativecontrol) [formula]

OCI-LY10 cells = test: Viability assay of OCI-LY10 cells (CTG); type: cell-based; details: cell viability, read-out: OCl-Ly10
Protocol: as §1, §2

IC50 (OCI-LY10 cells; Homo sapiens, OCI-Ly10, 120 h) [nM] | IC50 (OCI-LY10 cells; 120 hours) [nM] | Compound | IC50 (TMD8 cells; Homo sapiens) [nM] | IC50 (TMD8 cells) [nM]
10 to 50 |  | COc1ccc(F)cc1C(=O)NCc1ccc(-c2nc(C(C)C(F)(F)F)cc3[nH]nc(N)c23)cc1 (single isomer, unassigned) [Example 2, N-(4-(3-amino-6-(1,1,1-trifluoropropan-2-yl)-1H-pyrazolo[4,3-c]pyridin-4-yl)benzyl)-5-fluoro-2-methoxybenzamide] | 5 to 10 | 
 | 10 to 50 | COc1ccc(F)cc1C(=O)NCc1ccc(-c2nc(C(C)C(F)(F)F)cc3[nH]nc(N)c23)cc1 (single isomer, unassigned) [Example 3, N-(4-(3-amino-6-(1,1,1-trifluoropropan-2-yl)-1H-pyrazolo[4,3-c]pyridin-4-yl)benzyl)-5-fluoro-2-methoxybenzamide] |  | 5 to 10
5 to 10 |  | COc1ccc(F)cc1C(=O)NCc1ccc(-c2nc(C(C)C(F)(F)F)c(-c3ccn(C)n3)c3[nH]nc(N)c23)cc1 (single isomer, unassigned) [Example 6-1, N-(4-(3-amino-7-(1-methyl-1H-pyrazol-3-yl)-6-(1,1,1-trifluoropropan-2-yl)-1H-pyrazolo[4,3-c]pyridin-4-yl)benzyl)-5-fluoro-2-methoxybenzamide] | ≤ 5 | 
 | ≤ 5 | COc1ccc(F)cc1C(=O)NCc1ccc(-c2nc(C(C)C(F)(F)F)c(-c3ccn(C)n3)c3[nH]nc(N)c23)cc1 (single isomer, unassigned) [Example 6-2, N-(4-(3-amino-7-(1-methyl-1H-pyrazol-3-yl)-6-(1,1,1-trifluoropropan-2-yl)-1H-pyrazolo[4,3-c]pyridin-4-yl)benzyl)-5-fluoro-2-methoxybenzamide] |  | ≤ 5
≤ 5 |  | COc1ccc(F)cc1C(=O)NCc1ccc(-c2nc(C(C)C(F)(F)F)c(-c3ncccn3)c3[nH]nc(N)c23)cc1 (single isomer, unassigned) [Example 7-1, N-(4-(3-amino-7-(pyrimidin-2-yl)-6-(1,1,1-trifluoropropan-2-yl)-1H-pyrazolo[4,3-c]pyridin-4-yl)benzyl)-5-fluoro-2-methoxybenzamide] | ≤ 5 | 
 | ≤ 5 | COc1ccc(F)cc1C(=O)NCc1ccc(-c2nc(C(C)C(F)(F)F)c(-c3ncccn3)c3[nH]nc(N)c23)cc1 (single isomer, unassigned) [Example 7-2, N-(4-(3-amino-7-(pyrimidin-2-yl)-6-(1,1,1-trifluoropropan-2-yl)-1H-pyrazolo[4,3-c]pyridin-4-yl)benzyl)-5-fluoro-2-methoxybenzamide] |  | ≤ 5
5 to 10 |  | COc1ccc(F)cc1C(=O)NCc1ccc(-c2nc(C(C)C(F)(F)F)c(-c3cc(C)[nH]n3)c3[nH]nc(N)c23)cc1 (stereo not shown) [Example 9, N-(4-(3-amino-7-(5-methyl-1H-pyrazol-3-yl)-6-(1,1,1-trifluoropropan-2-yl)-1H-pyrazolo[4,3-c]pyridin-4-yl)benzyl)-5-fluoro-2-methoxybenzamide] | ≤ 5 | 
5 to 10 |  | COc1ccc(F)cc1C(=O)NCc1ccc(-c2ncc(-c3ccccn3)c3[nH]nc(N)c23)cc1 [Example 15, N-(4-(3-amino-7-(pyridin-2-yl)-1H-pyrazolo[4,3-c]pyridin-4-yl)benzyl)-5-fluoro-2-methoxybenzamide] | ≤ 5 | 
10 to 50 |  | COc1ccc(F)cc1C(=O)NCc1ccc(-c2ncc(-c3ncccn3)c3[nH]nc(N)c23)cc1 [Example 17, N-(4-(3-amino-7-(pyrimidin-2-yl)-1H-pyrazolo[4,3-c]pyridin-4-yl)benzyl)-5-fluoro-2-methoxybenzamide] | 5 to 10 | 
10 to 50 |  | COc1ccc(F)cc1C(=O)NCc1ccc(-c2ncc(-c3cnccn3)c3[nH]nc(N)c23)cc1 [Example 18, N-(4-(3-amino-7-(pyrazin-2-yl)-1H-pyrazolo[4,3-c]pyridin-4-yl)benzyl)-5-fluoro-2-methoxybenzamide] | 5 to 10 | 
10 to 50 |  | COc1ccc(F)cc1C(=O)NCc1ccc(-c2ncc(-c3ccncn3)c3[nH]nc(N)c23)cc1 [Example 19] | 5 to 10 | 
